Assay results taken from the supplement of paper PMC11061612.

Columns and labels:
Assay in all cases: combination Emax (second highest fraction inhibited in the dose matrix, 72 h); higher = more inhibition; extreme values may be limits of the assay
A2058 (Melanoma) = test system: A2058 (Melanoma)
Method in brief: (§1)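 Cell lines grown in DMEM/F12 or RPMI with 10% FBS were plated in 1536-well plates and held 24 hours at 37°C, 5% CO2 before 72 hours of exposure to two-drug dose matrices, with DMSO typically at 0.2%. CellTiter-Glo 2.0 luminescence gave viability, which was converted to inhibition. Vehicle wells were set to 0 and blank wells to 1. Combination Emax is the second-highest inhibition in the matrix, and Bliss excess is the observed combination effect minus the expected EA + EB − EA·EB, where EA and EB are the single-agent effects.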

[1] = test system: LB996-RCC (Kidney Carcinoma)
Method in brief: as §1

[2] = test system: LK-2 (Squamous Cell Lung Carcinoma)
Method in brief: as §1

WM793B (Melanoma) = test system: WM793B (Melanoma)
Method in brief: as §1

SF268 (Low Grade Glioma) = test system: SF268 (Low Grade Glioma)
Method in brief: as §1

[3] = test system: CAL-120 (Breast Carcinoma)
Method in brief: as §1

[4] = test system: LXF-289 (Lung Adenocarcinoma)
Method in brief: as §1

[5] = test system: RCM-1 (Colorectal Carcinoma)
Method in brief: as §1

[6] = test system: RERF-GC-1B (Gastric Carcinoma)
Method in brief: as §1

[7] = test system: HCT-15 (Colorectal Carcinoma)
Method in brief: as §1

[8] = test system: RKN (Other Solid Carcinomas)
Method in brief: as §1

[9] = test system: TE-8 (Esophageal Squamous Cell Carcinoma)
Method in brief: as §1

[10] = test system: GP5d (Colorectal Carcinoma)
Method in brief: as §1

[11] = test system: KE-37 (T-Lymphoblastic Leukemia)
Method in brief: as §1

[12] = test system: SK-PN-DW (Other Solid Carcinomas)
Method in brief: as §1

[13] = test system: 23132-87 (Gastric Carcinoma)
Method in brief: as §1

LN-229 (Glioblastoma) = test system: LN-229 (Glioblastoma)
Method in brief: as §1

[14] = test system: HSC-39 (Gastric Carcinoma)
Method in brief: as §1

[15] = test system: CAL-62 (Thyroid Gland Carcinoma)
Method in brief: as §1

[16] = test system: OAW-42 (Ovarian Carcinoma)
Method in brief: as §1

Row | SMILES | combination Emax (A2058 (Melanoma)) | combination Emax [1] | combination Emax [2] | combination Emax (WM793B (Melanoma)) | combination Emax (SF268 (Low Grade Glioma)) | combination Emax [3] | combination Emax [4] | combination Emax [5] | combination Emax [6] | combination Emax [7] | combination Emax [8] | combination Emax [9] | combination Emax [10] | combination Emax [11] | combination Emax [12] | combination Emax [13] | combination Emax (LN-229 (Glioblastoma)) | combination Emax [14] | combination Emax [15] | combination Emax [16]
1 | CC1(C)CCC(CN2CCN(c3ccc(C(=O)NS(=O)(=O)c4ccc(NCC5CCOCC5)c([N+](=O)[O-])c4)c(Oc4cnc5[nH]ccc5c4)c3)CC2)=C(c2ccc(Cl)cc2)C1 [Venetoclax] + C[C@@H](Nc1cc(F)cc(F)c1)c1cc(C(=O)N(C)C)cc2c(=O)cc(N3CCOCC3)oc12 [AZD8186] (first compound max 1 µM, 7x7, partner max 3 µM) | 0.158 | 0.306 | 0.0674 | 0.36 | 0.127 | 0.12 | 0.224 | 0.28 | 0.103 | 0.138 | 0.18 | 0.401 | 0.228 | 0.356 | 0.862 | 0.0687 | 0.0902 | 0.972 | 0.119 | 0.125
2 | CC1(C)CCC(CN2CCN(c3ccc(C(=O)NS(=O)(=O)c4ccc(NCC5CCOCC5)c([N+](=O)[O-])c4)c(Oc4cnc5[nH]ccc5c4)c3)CC2)=C(c2ccc(Cl)cc2)C1 [Venetoclax] + Cc1cc2ncnn2cc1Nc1ncc2c(n1)n(C1CCOCC1)c(=O)n2C [AZD7648] (first compound max 1 µM, 7x7, partner max 10 µM) | 0.203 | 0.373 | 0.266 | 0.309 | 0.268 | 0.125 | 0.163 | 0.362 | 0.28 | 0.229 | 0.157 | 0.401 | 0.374 | 0.404 | 0.856 | 0.152 | 0.115 | 0.936 | 0.366 | 0.425
3 | CC1(C)CCC(CN2CCN(c3ccc(C(=O)NS(=O)(=O)c4ccc(NCC5CCOCC5)c([N+](=O)[O-])c4)c(Oc4cnc5[nH]ccc5c4)c3)CC2)=C(c2ccc(Cl)cc2)C1 [Venetoclax] + Cn1cnc2c(F)c(Nc3ccc(Br)cc3Cl)c(C(=O)NOCCO)cc21 [Selumetinib] (first compound max 1 µM, 7x7, partner max 3 µM) | 0.493 | 0.156 | 0.172 | 0.42 | 0.157 | 0.106 | 0.183 | 0.571 | 0.27 | 0.156 | 0.291 | 0.457 | 0.71 | 0.352 | 0.806 | 0.0843 | 0.3 | 0.936 | 0.256 | 0.147
